One data set deals with rats. The data set is described as follows: Alternating Lever Cyclic Ratio (ALCR) test after ICV Aβ oligomers. Format: in vivo, rat. On the procedure: The Aβ oligomers are naturally produced by cells transfected with genes that over-produce the amyloid precursor protein (APP). […] In addition, oligomeric Aβ is extracted from brain homogenate taken from transgenic mice (Tg2576) transfected with the Swedish APP mutation. […] These purified oligomeric forms of Aβ, at physiological concentrations relevant to those found in AD, are injected into the rat's lateral ventricle through an indwelling cannula while the animals are awake and moving. Two hours after injection the rats are tested under sensitive cognitive assay. The assay, the Alternating Lever Cyclic Ratio (ALCR) test, has proven to be much more sensitive than previously published methods for measuring drug effects on cognitive function. In this task, rats must learn a complex sequence of lever-pressing requirements in order to earn food reinforcement in a two-lever experimental chamber. Subjects must alternate between two levers by switching to the other lever after pressing the first lever enough to get food reward. The exact number of presses required for each food reward changes, first increasing from 2 responses per food pellet up to 56 presses per food pellet, then decreasing back to 2 responses per pellet. Intermediate values are based on the quadratic function, x^2−x. One cycle is an entire ascending and descending sequence of these lever press requirements (e.g., 2, 6, 12, 20, 30, 42, 56, 56, 42, 30, 20, 12, 6, and 2 presses per food reward). Six such full cycles are presented during each daily session. […] Oligomeric Aβ: […] These cells secrete oligomeric Aβ into the culture medium (CM) at physiological levels. Aβ oligomers was also derived from Tg2576 mouse brain and purified by size exclusion chromatography. Samples of oligomeric Aβ were characterized by Western Blot Analysis. Appropriate control compounds were produced and tested for each active Aβ oligomeric configuration. Rats: Forty (40) rats were trained under ALCR for approximately 3 months until their error rates are stable. Training sessions were conducted 5 days each week. Surgery: After training, all rats received a single 28 ga. cannula that was permanently affixed to the skull, and aimed at the lateral ventricle (divided equally between left and right). Rats were allowed 5 days to recover from surgery. Administration: In vivo administration of AZD103 to rats was performed by dissolving AZD103 into drinking water. Different concentrations were prepared, and the average daily water intake used to target specific average daily dose levels. These dose levels were therefore approximate. Testing: AZD 103 was tested against Aβ oligomers known to disrupt cognitive function. […] AZD 103 was incubated with the injectate medium containing Aβ oligomers prior to assessing it's affect on ALCR. […] Treatments were assessed in the following order: • 1. […] ICV AZD 103 alone • 3. […] Error Rate Analysis: All error rates under AZD 103 were compared to baseline error rates consisting of at least 3-4 non-treatment days prior to injections. This is a repeated measure within subject design that produces maximum power to detect changes in the error rates. Histology: Upon completion of the study, 20 rat brains were banked. The other 20 brains were evaluated histologically for inflammation, gliosis and cannula placement. […] Serial hematoxylin and eosin stained sections were used to evaluate for cannula placement. These same hemibrains were evaluated for inflammation (neutrophils/lymphocytes/macrophages), gliosis (microglial and astrocytic) and neuron loss using standard hematoxylin and eosin staining as well as specific markers for gliosis as needed.

In another data set the target is T1, Aβ42 (Homo sapiens, UniProt P05067).
T1 construct: analyzed for Aβ40 and Aβ42 using commercially available kits; from tissue; host or cells: TgCRND8 transgenic mice: hemi-brain (A3) and plasma (A5)
T1 sequence (P05067 672-713): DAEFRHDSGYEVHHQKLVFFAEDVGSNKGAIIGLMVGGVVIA
The data set is described as follows: Plasma Aβ42 levels. Format: in vivo, mouse. The settings on record: TgCRND8 mice, 28 days of therapy at five months of age. On the procedure: (§1) Mice. […] This initial dosage was chosen based upon the dosage of myo-cyclohexanehexyl (6-18 grams/day/adult or 86-257 mg/Kg/day) that is typically administered to human patients for various psychiatric disorders. […] A cohort of animals (n=10 mice per treatment arm) entered the study at five months of age, and outcomes were then analyzed after one month of treatment. The body weight, coat characteristics and in cage behaviour were monitored. Mannitol was used as a negative control for potential alterations in caloric intake. All experiments were performed according to the Canadian Council on Animal Care guidelines. Behavioural tests: Morris Water Maze testing was performed as previously described. […] Duration of walking, pausing and grooming were analyzed as indices of spontaneous locomotor activity. […] Latency to fall was recorded in four daily trials, conducted at 30 min intervals. […] Amyloid plaque burden was assessed with Leco IA-3001 image analysis software interfaced with Leica microscope and Hitachi KP-M1U CCD video camera. […] Vascular amyloid burden was defined as amyloid originating from or surrounding blood vessels and was analysed similarly. […] After neutralization, the samples were diluted and analyzed for Aβ40 and Aβ42 using commercially available kits (BIOSOURCE International). Each hemisphere was analyzed intriplicate and the mean values ±SEM reported. […] Gliosis Quantitation. […]

The next data set concerns TgCRND8 mice. The settings on record: mouse, in vivo. The procedure:
as §1

Each structure is given as a SMILES string.

`OC1C(O)C(O)C(O)C(O)C1O` (stereo not drawn) [scyllo-cyclohexanehexyl, 1,3,5/2,4,6-(scyllo-) cyclohexanehexyl]: the “impact on ALCR performance without oligomers” value in the data set with rats (AZD103 administered without oligomers) is “no impact on performance”. Further, the Switching % errors in the data set on rats (ICV AZD103 alone, baseline = 100) is reported as 99%; in the data set on rats (ICV Aβ oligomers incubated ex vivo with AZD103, baseline = 100) it was 95%; with rats (ICV oligomers after 4 days PO 30 mg/kg/day in drinking water), 109%; in the data set on rats (ICV oligomers after 4 days PO 100 mg/kg/day in drinking water), 100%; with rats (ICV oligomers after 4 days PO 300 mg/kg/day in drinking water) it was 109%. Besides, at Aβ42, the “Plasma Aβ42 levels” value was determined as 990 ± 73 pg/mL. In the data set with TgCRND8 mice, the “grooming or activity in the open field test” value is on record as “no effect on grooming or activity”. For the same compound, in the data set on TgCRND8 mice, the “sensorimotor function, Rotarod” value was “no difference”.

Values taken from US20080306166A1, “Compositions and Methods For Treatment of Disorders of Protein Aggregation” (priority 2004, published 2008).
